PMC9097471, “Development of Selective Phosphatidylinositol 5-Phosphate 4-Kinase γ Inhibitors with a Non-ATP-competitive, Allosteric Binding Mode” (Journal of Medicinal Chemistry, 2022)
Several values for one entry are separate records, joined by “and”; a condition that tells them apart may be missing. Equal entries are not always repeated.

How the values were obtained:
[1] = target: T1, PI5P4Kγ-WT (Homo sapiens, UniProt Q8TBX8); assay: Thermal shift assay; settings: read-out: ΔTm PI5P4Kγ WT, thermal shift, compound 63 μM
T1 sequence (Q8TBX8 1-421): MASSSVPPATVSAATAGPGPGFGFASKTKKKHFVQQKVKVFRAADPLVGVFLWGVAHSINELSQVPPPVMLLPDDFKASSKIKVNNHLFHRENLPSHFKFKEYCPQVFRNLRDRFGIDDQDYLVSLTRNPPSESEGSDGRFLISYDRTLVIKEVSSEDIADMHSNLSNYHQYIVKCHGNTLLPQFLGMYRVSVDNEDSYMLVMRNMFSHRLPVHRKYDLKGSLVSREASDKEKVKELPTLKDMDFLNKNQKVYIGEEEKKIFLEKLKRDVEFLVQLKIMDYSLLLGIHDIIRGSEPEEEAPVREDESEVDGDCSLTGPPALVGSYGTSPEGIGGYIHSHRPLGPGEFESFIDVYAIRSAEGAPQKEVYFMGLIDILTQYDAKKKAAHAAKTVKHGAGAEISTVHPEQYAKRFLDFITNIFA

[2] = target: T2, PI5P4Kα-WT (Homo sapiens, UniProt P48426); assay: ADP-Glo inhibition assay; settings: ADP-Glo
T2 sequence (P48426 1-406): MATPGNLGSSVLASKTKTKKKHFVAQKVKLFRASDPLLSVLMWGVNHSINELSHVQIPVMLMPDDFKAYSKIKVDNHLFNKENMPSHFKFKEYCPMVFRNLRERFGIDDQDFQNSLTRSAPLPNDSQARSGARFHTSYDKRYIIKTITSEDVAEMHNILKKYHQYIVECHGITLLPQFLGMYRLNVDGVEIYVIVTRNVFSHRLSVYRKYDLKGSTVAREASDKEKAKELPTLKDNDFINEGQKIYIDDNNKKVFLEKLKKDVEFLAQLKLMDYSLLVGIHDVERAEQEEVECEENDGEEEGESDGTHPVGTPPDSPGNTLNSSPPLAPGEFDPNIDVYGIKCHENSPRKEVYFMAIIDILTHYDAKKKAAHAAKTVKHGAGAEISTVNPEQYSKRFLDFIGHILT
Description: (§1) To enable direct comparisons, Promega’s ADP-Glo reporter assay was developed using a mutant form of the kinase. […] To mitigate concerns about being misled by the use of the PI5P4Kγ+ construct and the possible introduction of PI5P4Kα activity into the molecules, our screening cascade included the measurement of ADP-Glo activity at PI5P4Kα-WT (and PI5P4Kβ-WT to fully understand emerging selectivity profiles).

[3] = target: T3, PI5P4Kγ+ (Homo sapiens, UniProt Q8TBX8, D138G/D197E/E133P/E135D/E153T/E196G/G136S/G139A/N195G/S132L/S134N); assay: ADP-Glo inhibition assay; format: biochemical; settings: for IC50 / PI5P4Kγ+ inhibition: ADP-Glo; for IC50: mutant PI5P4Kγ+ construct, read-out: PI5P4Kγ+ pIC50 (converted); for PI5P4Kγ+ LE: ligand efficiency from PI5P4Kγ+ pIC50
T3 construct: GST (N, cleaved yes); made in house; host or cells: E. coli BL21(DE3), pGEX6P
T3 sequence (Q8TBX8 with tags, fused parts or gaps INS131LPN/S132D/E133S/S134Q/E135A/G136R/D138G/G139A/E153T/N195G/E196G/D197E): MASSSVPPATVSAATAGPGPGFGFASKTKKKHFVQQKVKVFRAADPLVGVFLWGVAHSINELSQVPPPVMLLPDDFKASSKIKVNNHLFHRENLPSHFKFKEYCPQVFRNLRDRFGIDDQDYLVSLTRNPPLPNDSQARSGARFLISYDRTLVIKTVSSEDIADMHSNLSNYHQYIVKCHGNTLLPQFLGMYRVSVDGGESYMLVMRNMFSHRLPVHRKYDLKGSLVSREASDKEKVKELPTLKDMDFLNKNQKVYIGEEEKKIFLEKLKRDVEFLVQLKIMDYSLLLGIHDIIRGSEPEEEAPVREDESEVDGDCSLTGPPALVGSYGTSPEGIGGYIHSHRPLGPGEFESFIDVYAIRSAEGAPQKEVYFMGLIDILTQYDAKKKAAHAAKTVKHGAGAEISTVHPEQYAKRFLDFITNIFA
Protocol: Recombinant mutant PI5P4Kγ+ was prepared essentially as described previously.[25] […] Cultures were induced with 0.4 mM IPTG and probe sonicated in the presence of protease inhibitors. The GST fusion protein of PI5P4Kγ+ was harvested by binding to glutathione sepharose beads (Cytiva) and cleaved in situ with 50U of PreScission protease (Cytiva) for 4 h at 4 °C. The cleaved protein was further purified by size-exclusion chromatography (AKTA Pure, Cytiva). The protein purity was confirmed by sodium dodecyl sulphate–polyacrylamide gel electrophoresis, and the concentration was determined by colorimetric assay (Bio-Rad).
Statistical analysis was performed using nonparametric testing in Prism 8 (GraphPad). Activity pIC50 values and in vivo binding pEC50 values were estimated using a 4-parameter fit (Dotmatics).

[4] = target: T4, PI5P4Kβ-WT (Homo sapiens, UniProt P78356); assay: ADP-Glo inhibition assay; settings: ADP-Glo
T4 sequence (P78356 1-416): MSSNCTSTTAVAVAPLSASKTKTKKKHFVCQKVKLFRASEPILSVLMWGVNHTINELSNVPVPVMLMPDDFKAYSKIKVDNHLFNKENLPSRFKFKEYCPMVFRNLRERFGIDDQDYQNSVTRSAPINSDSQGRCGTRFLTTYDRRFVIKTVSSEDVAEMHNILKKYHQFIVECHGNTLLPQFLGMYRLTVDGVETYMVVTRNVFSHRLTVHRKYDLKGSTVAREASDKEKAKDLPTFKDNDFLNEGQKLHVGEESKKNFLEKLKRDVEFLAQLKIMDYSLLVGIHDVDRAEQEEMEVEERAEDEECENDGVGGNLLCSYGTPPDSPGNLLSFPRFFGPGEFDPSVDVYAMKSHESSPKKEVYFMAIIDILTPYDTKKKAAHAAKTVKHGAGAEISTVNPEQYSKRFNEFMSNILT
Description: as §1

Row | ΔTm at 63 µM [1] [°C] | PI5P4Kα pIC50 [2] | IC50 [3] | PI5P4Kγ+ LE [3] | PI5P4Kβ pIC50 [4] | PI5P4Kα inhibition [2] | PI5P4Kβ inhibition [4] | PI5P4Kγ+ inhibition [3] | SMILES
1 |  | <4.3 | 0.316 µM | 0.32 |  |  |  |  | CC(C)c1ccccc1-c1nc(NCc2ccccn2)c2cc(N)ccc2n1 [Compound 33]
2 |  | <4.7 |  |  | <4.6 | no detectable inhibition | no detectable inhibition |  | Cc1cnc(-c2ccccc2C(C)C)nc1NCc1ccccn1 [Compound 34]
3 |  | <4.3 |  |  | <4.6 |  |  |  | CC(C)c1ccccc1-c1nc(NCc2ccccn2)c2ncccc2n1 [Compound 36]
4 |  | <4.3 |  |  | <4.6 |  |  |  | CC(C)c1ccccc1-c1nc(NCc2ccccn2)c2cccnc2n1 [Compound 37]
5 |  | <4.3 | > 50.1 µM |  |  |  |  | inactive | CC(C)c1ccccc1-c1nc(NCc2ccccn2)c2ccn(C)c2n1 [Compound 39]
6 |  |  |  |  |  | inactive |  | inactive | Cc1cnc(-c2ccccc2C(C)C)nc1NCc1ccc(-n2ccnn2)cc1 [ML323, reference compound]

Continued, compound first:

Row | SMILES | ΔTm at 63 µM [1] [°C] | PI5P4Kα pIC50 [2] | IC50 [3] | PI5P4Kγ+ LE [3] | PI5P4Kβ pIC50 [4] | PI5P4Kα inhibition [2] | PI5P4Kβ inhibition [4] | PI5P4Kγ+ inhibition [3]
7 | CCc1ccccc1-c1nc(NCc2ccccn2)c2ccccc2n1 [Compound 24] | 4.9 | <4.3 | 5.01 µM | 0.29 |  |  |  | 
8 | c1ccc(-c2ccccc2-c2nc(NCc3ccccn3)c3ccccc3n2)cc1 [Compound 25] | 4.4 | <4.3 | 10 µM | 0.24 |  |  |  | 
9 | N#Cc1ccccc1-c1nc(NCc2ccccn2)c2ccccc2n1 [Compound 26] | 2.9 | <4.3 | > 50.1 µM |  |  |  |  | 
10 | CN(C)c1ccccc1-c1nc(NCc2ccccn2)c2ccccc2n1 [Compound 27] | 2.7 | <4.3 | > 50.1 µM |  |  |  |  | 
11 | CC(C)c1ccccc1-c1nc(Nc2ccccn2)c2ccccc2n1 [Compound 28] |  | <4.3 | > 25.1 µM |  |  |  |  | 
12 | CC(C)c1ccccc1-c1nc(NC(C)c2ccccn2)c2ccccc2n1 (centres unmarked) [Compound 29] | 0.2 | <4.3 | 39.8 µM | 0.22 | <4.6 |  |  | 
13 | CC(C)c1ccccc1-c1nc(NCc2ccc(C(F)(F)F)cn2)c2ccccc2n1 [Compound 30] |  | <4.3 | > 50.1 µM |  |  |  |  | 
14 | CC(C)c1ccccc1-c1nc(NCc2ncccc2O)c2ccccc2n1 [Compound 31] | 7 |  | 0.631 µM |  |  |  |  | 
15 | CC(C)c1ccccc1-c1nc(NCc2ccccn2)c2cc(Br)ccc2n1 [Compound 32] |  | <4.3 | 0.2 µM | 0.33 |  |  |  | 
16 | CC(C)c1ccccc1-c1nc(NCc2ccccn2)c2c(ccn2CC2CC2)n1 [Compound 41] | 4.9 | <4.3 | 0.316 µM and 2.51 µM | 0.31 |  |  |  | 
17 | CC(C)c1ccccc1-c1nc(NCc2ccccn2)c2[nH]ccc2n1 [Compound 42] |  | <4.3 |  |  | <4.6 |  |  | 
